Results published in patent US11246949B2, “Imaging contrast agents and uses thereof” (The Research Foundation for The State University of New York, priority 2011, dated 2022).

Experiments:
[1] = Electrochemical potential E° vs. NHE; type: physicochemical; details: 100 mM tetrabutylammonium hexafluorophosphate in acetonitrile
Excerpt: In an embodiment, the compounds of the invention are stable towards chemical reaction in an oxidative environment (i.e., in the presence of biologically relevant concentrations of peroxide or oxygen). In an embodiment, the stability in an oxidative environment can be related to the reduction potential of the complex. In an embodiment, the compounds of the present invention have a reduction potential greater than 600 mV vs. NHE (Normal Hydrogen Electrode) as shown in Table 1. Generally, the compounds of the invention have a reduction potential above 800 mV vs. NHE.

[2] = Ascorbate consumption (redox cycling, reactive oxygen species generation); details: 100 μM ascorbate, 10 μM Fe(II), 10 μM ligand, 10 mM HEPES, pH 7.4, 37° C.
[3] = Dissociation of the metal ion complex (kinetic inertness); type: physicochemical
[4] = pH-potentiometric titrations: acid-dissociation and ligand-Fe(II) equilibrium constants; type: physicochemical; details: for formation constant log K (binding of macrocycle to metal ion): 100 mM NaCl
Procedure: FIG. 10. Representative pH-potentiometric titrations for Fe(L1) and Fe(L3) in 100 mM NaCl at 25° C.
Fe(II) paraCEST agents were developed by preparing ligands that stabilize Fe(II) and Ni(II), contain multiple exchangeable protons to enhance the CEST effect and form six or eight coordinate complexes to protect the Fe(II) from binding additional ligands that might complicate the CEST signal. The sexadentate ligands contained the macrocycle, 1,4,7-triazacyclononane, with three pendent groups while the octadentate ligands contained 1,4,7,10-tetraazacyclododecane and four pendent groups (FIG. 1 and FIG. 2). Pyridine pendent groups stabilize Fe(II) relative to Fe(III) (L2, L3), and amide pendent groups are stabilizing of Fe(II) (L1). For example, the pyridine groups in Fe(L3) lead to a high reduction potential of +930 mV vs. NHE. Amide groups contain exchangeable protons and have been commonly used as a basis for Ln(III) paraCEST agents. In contrast, amino pyridine pendent groups and the benzimidazole groups have exchangeable protons that are one bond further away from the Fe-coordinated nitrogen of the pyridine ring. Exchangeable protons close to the Fe(II) center as well as more remotely located protons appended to a ligand pi-system have been studied in this work in order to capitalize on both the dipolar and contact shift contributions of paramagnetic Fe(II). The strategy of using exchangeable protons that are remote from the metal ion center was explored in order to capitalize on both the dipolar and contact shift contributions of paramagnetic Fe(II). Fe(II) complexes were prepared in acetonitrile or in aqueous solution by simple addition of the free base form of the ligands to Fe(CF3SO3)2.

[5] = Persistence of high spin Fe(II) oxidation state in aqueous solution (1H NMR, μeff); type: physicochemical; details: atmospheric oxygen, several days
Procedure: Effective magnetic moments are characteristic of high spin Fe(II) at 5.1 BM and 5.8 BM for Fe(L1) and Fe(L2), These were measured in 100 mM NaCl in D2O, pH 7.4, and D2O at pH 7.0, respectively. The ^1H NMR spectra of the two complexes show highly shifted proton resonances (FIGS. 4-5). There are nine non-exchangeable proton resonances for Fe(L2) consistent with trigonal prismatic geometry as observed previously for Fe(L3) and three sets of four chemically inequivalent proton resonances in the macrocycle backbone. […] The exchangeable amide and amine protons were identified by comparison of the ^1H NMR spectra of the complexes in H2O and […]. For Fe(L1), the amide protons are highly shifted downfield, appearing at 77 ppm. The amine protons of Fe(L2) are only slightly shifted and are observed at 11 ppm.
Generally, macrocyclic complexes in FIG. 1 are prepared from the macrocycle and Fe(II) salt such as FeCl2, or Fe(CF3SO3)2 in acetonitrile at room temperature with argon bubbled through the solvent. This helps to ensure that a negligible amount of O2 is present in the reaction flask. In the absence of an inert atmosphere, difficulties in maintaining the desired oxidation state may arise through mechanisms such as oxidation of the metal to Fe(III) prior to complexation with the ligand. […]

SMILES | E° vs. NHE [1] | Ascorbate consumption [2] | resistance to dissociation >12 h, neutral pH [3] | formation constant log K (binding of macrocycle to metal ion) [4] | further results
O=C([O-])CN(CCN(CC(=O)[O-])CC(=O)[O-])CC(=O)[O-].[Fe+3] [Fe(EDTA), reference compound] | 390 mV | 77 ± 13 ×10^−5 (s^−1) |  |  | 
NC(=O)CN1CCN(CC(N)=O)CCN(CC(N)=O)CC1.[Fe+2] [Fe(L1)] | 860 ± 9 mV | 7.2 ± 0.96 ×10^−5 (s^−1) | Moderate | 13.5 | % dissociation over 12 hours ([3]; 12 hours): <9%; Log K1 ([4]; K1 = [LH+]/([L][H+]), 1.05 mM L, 1.0 mM Fe(OTf)2, 0.10 M NaCl, 25° C.): 10.19 ± 0.11; Log K2 ([4]; K2 = [LH2 2+]/([LH+][H+]), 0.10 M NaCl, 25° C.): <2; Log K3 ([4]; K3 = [LH3 3+]/([LH2 2+][H+]), 0.10 M NaCl, 25° C.): <2; Log K Fe-L ([4]; KFeL = [FeL2+]/([Fe2+][L]), 0.10 M NaCl, 25° C.): 13.47 ± 0.25; Log K FeL-OH ([4]; KFeL-OH = [FeL-OH+]/([FeL2+][OH−]), 0.10 M NaCl, 25° C.): 9.43 ± 0.18; Log K Fe-LH ([4]; KFeLH = [FeLH3+]/([FeL2+][H+]), 0.10 M NaCl, 25° C.): 5.54 ± 0.14; resistance to oxidation to Fe(III) [5]: resistant to oxidation to Fe(III)
Cc1nc(CN2CCN(Cc3ccc(N)c(C)n3)CCN(Cc3ccc(N)c(C)n3)CC2)ccc1N.[Fe+2] [Fe(L2)] |  |  | good |  | resistance to oxidation to Fe(III) [5]: resistant to oxidation to Fe(III)
NC(=O)CN1CCN(CC(N)=O)CCN(CC(N)=O)CCN(CC(N)=O)CC1.[Fe+2] [Fe(L4)] | 800 ± 5 mV | 4.0 ± 1.0 ×10^−5 (s^−1) | excellent | 7.5 | % dissociation over 12 hours ([3]; 12 hours): 0%; dissociation after incubation ([3]; 12 hours, 37° C., pH 4 or neutral pH with five equivalents of CuCl2 or ZnCl2): no dissociation
[Fe+2].c1ccc2[nH]c(CN3CCN(Cc4nc5ccccc5[nH]4)CCN(Cc4nc5ccccc5[nH]4)CC3)nc2c1 [Fe(L5)] |  |  | moderate |  | 
CC(O)CN1CCN(CC(C)O)CCN(CC(C)O)CCN(CC(C)O)CC1.[Fe+2] (centres unmarked) [Fe(L6)] |  |  | Moderate | 9.3 | 
CC(O)CN1CCNCCN(CC(C)O)CCNCC1.[Fe+2] (centres unmarked) [Fe(L7)] |  |  | moderate |  | 
Nc1cccc(CN2CCN(Cc3cccc(N)n3)CCN(Cc3cccc(N)n3)CC2)n1.[Fe+2] [Fe(L8)] |  |  | good |  | 
NC(=O)CN1CCN(CC(N)=O)CCN(CC(N)=O)CC1.[Ni+2] [Ni(L1)] |  |  | good |  | inertness towards dissociation in solution ([3]; neutral and acidic pH, at least 24 hours): inert towards dissociation
